# Test system: TA97
# Assay: Salmonella mutagenicity assay TA97
# Protocol: The method for detecting mutagenicity of HHT, with the Salmonella system that detects the reversion of the bacteria from His^− to His^+, is widely used.
# The bacterial tester strains used for mutagenesis testing are TA97, TA98, TA100 and TA102. Mutagenesis testing method was done as described previously ^[77-88]. In brief, TA97, TA98, TA100 and TA102 were grown in agar gel culture. The petri plats (100×15 mm style) contain 30 ml with 2% glucose. The agar mixture was agitated vigorously and immediately poured into plates of minimal agar. The cultures were incubated at 37° C. in a dark and 5% CO2 in air for 48 hours. After 48 hours the colonies in both test and controls are counted. The presence of a background lawn of bacteria on the histidine-poor soft agar plate was used as an indication that gross toxic effects were absent. Mutagenicity assays were carried out at least in triplicate.
# The range of spontaneous mutation rates for the individual strains, which were considered to be acceptable, was TA97 (100-170), TA98 (20-40) and TA100 (80-150).
compound,measurement,setting,value
"COC(=O)C[C@](O)(CCCC(C)(C)O)C(=O)O[C@@H]1C(OC)=C[C@]23CCCN2CCc2cc4c(cc2[C@H]13)OCO4 [HHT, Homoharringtonine]",Number of His^+ revertants/plate,"TA97 +S, 0.1 μg/plate",145 ± 14 revertants/plate
same,Number of His^+ revertants/plate,"TA97 +S, 1 μg/plate",150 ± 14 revertants/plate
same,Number of His^+ revertants/plate,"TA97 +S, 10 μg/plate",165 ± 16 revertants/plate
same,Number of His^+ revertants/plate,"TA97 +S, 100 μg/plate",160 ± 17 revertants/plate
same,Number of His^+ revertants/plate,"TA97 −S, 0.1 μg/plate",120 ± 10 revertants/plate
same,Number of His^+ revertants/plate,"TA97 −S, 1 μg/plate",130 ± 11 revertants/plate
same,Number of His^+ revertants/plate,"TA97 −S, 10 μg/plate",160 ± 16 revertants/plate
same,Number of His^+ revertants/plate,"TA97 −S, 100 μg/plate",150 ± 16 revertants/plate
